Test results as given in the supplement of paper PMC10307832.

What was measured:
Test in all cases: relative viability (nuclei count vs DMSO), 5 days (fraction); higher = more cells survive
[1] = compound: C1=CC2=C(C=C(C(=C2N=C1)O)N=NC3=CC4=C(C=C3)C=C(C=C4)S(=O)(=O)O)S(=O)(=O)O + COc1cccc2cc(-c3nc([C@H]4CC[C@H](C(=O)O)CC4)n4ncnc(N)c34)[nH]c12 [OSI-027] (partner 0.5 µM)
Summary of the method: (§1)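 After 5 days of treatment, lung cancer cells in 1536-well plates were fixed and stained in a single step (final 0.05% Triton X-100, 1% formaldehyde, 1 ug/ml Hoechst) and their nuclei counted on 4× images. Treatment had been applied by pin tool the day after seeding as one drug alone or as a fixed anchor-drug dose with five library-drug doses (not always all listed) in √10 steps. Relative viability is the nuclei count of treated wells divided by that of vehicle wells, and values are medians of duplicate plates.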

AT-7519 + Alpelisib = compound: O=C(NC1CCNCC1)c1n[nH]cc1NC(=O)c1c(Cl)cccc1Cl [AT-7519] + Cc1nc(NC(=O)N2CCC[C@H]2C(N)=O)sc1-c1ccnc(C(C)(C)C(F)(F)F)c1 [Alpelisib] (partner 2 µM)
Summary of the method: as §1

[2] = compound: C1=CC2=C(C=C(C(=C2N=C1)O)N=NC3=CC4=C(C=C3)C=C(C=C4)S(=O)(=O)O)S(=O)(=O)O + NC(=O)Nc1cc(-c2cccc(F)c2)sc1C(=O)N[C@H]1CCCNC1 [AZD7762] (partner 0.2 µM)
Summary of the method: as §1

[3] = compound: C1=CC2=C(C=C(C(=C2N=C1)O)N=NC3=CC4=C(C=C3)C=C(C=C4)S(=O)(=O)O)S(=O)(=O)O + Cc1cc(Nc2cc(N3CCN(C)CC3)nc(Sc3ccc(NC(=O)C4CC4)cc3)n2)n[nH]1 [Tozasertib] (partner 0.1 µM)
Summary of the method: as §1

Row | Cell Line | relative viability ([1]; first compound 0.08 µM) | relative viability ([1]; first compound 0.253 µM) | relative viability ([1]; first compound 0.8 µM) | relative viability ([1]; first compound 2.53 µM) | relative viability ([1]; first compound 8 µM) | relative viability (AT-7519 + Alpelisib; first compound 0.01 µM) | relative viability (AT-7519 + Alpelisib; first compound 0.03162 µM) | relative viability (AT-7519 + Alpelisib; first compound 0.3162 µM) | relative viability (AT-7519 + Alpelisib; first compound 1 µM) | relative viability ([2]; first compound 0.08 µM) | relative viability ([2]; first compound 0.253 µM) | relative viability ([2]; first compound 0.8 µM) | relative viability ([2]; first compound 2.53 µM) | relative viability ([2]; first compound 8 µM) | relative viability ([3]; first compound 0.08 µM) | relative viability ([3]; first compound 0.253 µM) | relative viability ([3]; first compound 0.8 µM) | relative viability ([3]; first compound 2.53 µM) | relative viability ([3]; first compound 8 µM)
1 | A-427 | 0.402 | 0.447 | 0.45 | 0.41 | 0.5 | 1.11 | 1.06 | 1.01 | 0.453 | 0.823 | 0.816 | 0.767 | 0.822 | 0.743 | 0.235 | 0.216 | 0.207 | 0.239 | 0.252
2 | NCI-H441 | 0.504 | 0.638 | 0.461 | 0.66 | 0.588 | 0.685 | 0.706 | 0.617 | 0.299 | 1.18 | 1.08 | 0.946 | 1.13 | 1.13 | 0.636 | 0.685 | 0.644 | 0.712 | 0.605
3 | NCI-H1703 |  |  |  |  |  | 0.282 | 0.297 | 0.299 | 0.156 | 0.147 | 0.163 | 0.13 |  | 0.16 |  |  |  |  | 
4 | NCI-H1792 | 0.866 | 0.669 | 0.726 | 0.689 | 0.629 | 0.324 | 0.536 | 0.767 | 0.51 | 1 | 0.655 | 0.723 | 0.715 | 0.836 |  |  |  |  | 
5 | Calu-6 |  |  |  |  |  | 0.995 | 1.17 | 0.877 | 0.391 |  |  |  |  |  |  |  |  |  | 
6 | SK-LU-1 | 0.424 | 0.366 | 0.38 | 0.338 | 0.354 | 1.13 | 0.94 | 0.861 | 0.351 |  |  |  |  |  | 0.32 | 0.286 | 0.303 | 0.331 | 0.336
7 | PC-3 [JPC-3] | 0.815 | 0.71 | 0.791 | 0.778 | 0.769 | 1.02 | 1.03 | 1.04 | 1.03 | 0.899 | 0.808 | 0.817 | 0.778 | 0.71 | 0.963 | 0.848 | 0.846 | 0.856 | 0.864
8 | EMC-BAC-2 | 0.408 | 0.397 | 0.386 | 0.363 | 0.343 | 0.716 | 0.699 | 0.782 | 0.746 | 1.04 | 1.1 | 1.09 | 1.14 | 0.995 | 0.303 | 0.29 | 0.303 | 0.337 | 0.302
9 | LK-2 | 0.21 | 0.202 | 0.189 | 0.211 | 0.202 | 0.697 | 1.12 | 0.827 | 0.514 | 0.549 | 0.345 | 0.369 | 0.452 | 0.285 | 0.174 | 0.189 | 0.18 | 0.178 | 0.148
10 | NCI-H2126 | 0.723 | 0.662 | 0.588 | 0.658 | 0.632 | 0.766 | 0.798 | 0.749 | 0.695 | 1.05 | 0.971 | 0.941 | 0.939 | 0.994 | 0.911 | 0.824 | 0.843 | 0.938 | 0.792
